This is an account of results in US9133129B2, “Bicyclic compound” (TAKEDA PHARMACEUTICAL COMPANY LIMITED, priority 2011, dated 2015).

One data set concerns the target T1, human ACC2 (Homo sapiens, UniProt O00763).
T1 construct: made in house; host or cells: SF-9 insect cells, recombinant baculovirus BAC-ACC2 (Nd)
Briefly: ACC2 inhibitory activity, malachite green assay with recombinant ACC2 (Nd). Format: biochemical. The following applies: for inhibition at 10 µM / ACC2 inhibitory rates (%) at 10 μM: 10 μM of the test compound; for inhibition at 10 µM: read-out: ACC2 inhibitory rates (%) at 10 μM. As for the experimental part: The ACC2 inhibitory action of the compound of the present invention was evaluated by the following method.
(1) Cloning of Human ACC2 Gene and Preparation of Recombinant Baculovirus
Human ACC2 gene was cloned by PCR using a human skeletal muscle cDNA library (Clontech) as a template and Primer 1 and Primer 2 shown below. Primer 1 and Primer 2 were prepared by adding SalI, XbaI restriction enzyme recognition sequences based on the information of the base sequence of human ACC2 gene (Genbank Accession U89344).
PCR was performed using Pyrobest DNA polymerase (TAKARA BIO INC.). The obtained PCR product was cloned to pT7 Blue vector (Novagen) and after confirmation of the base sequence, digested with restriction enzymes SalI and XbaI. The obtained DNA fragment was inserted into pFAST-BacHTa (Invitrogen) digested with restriction enzymes SalI and XbaI to give expression plasmid ACC2/pFAST-BacHTa.
A plasmid for expression of ACC2 without a mitochondrial targeting sequence was prepared by PCR using the expression plasmid as a template, and Primer 3 (SalI restriction enzyme recognition sequence was added) and Primer 4, which are prepared by reference to the information of human ACC2 gene base sequence (Genbank Accession U89344).
PCR was performed using Pyrobest-DNA polymerase (TAKARA BIO INC.). The obtained PCR product was cloned to pT7 Blue vector (Novagen) and after confirmation of the base sequence, digested with restriction enzymes SalI and AflII. The obtained DNA fragment was inserted into ACC2/pFAST-BacHTa digested with restriction enzymes SalI and AflII to give expression plasmid ACC2mito7/pFAST-BacHTa.
Using the expression plasmid ACC2mito7/pFAST-BacHTa and BAC-TO-BAC Baculovirus Expression System (Invitrogen), virus stock BAC-ACC2 of recombinant Baculovirus (N terminal deleted (hereinafter Nd)) was prepared.
(2) Preparation of ACC2 (Nd) Protein
SF-9 cells (Invitrogen) were inoculated to a medium (10 L) for insect cells (Sf-900IISFM medium (Invitrogen) containing 5% fetal bovine serum (Trace), 50 mg/L Gentamicin (Wako), 0.1% Pluronic F-68 (Invitrogen)) at 1.0×10^6 cells/mL, and cultured with shaking in Wave Bioreactor (GE Health Care) at 27° C., 20 rpm, rocking angle 10°, oxygen concentration 30%.
On day 2 of the culture, recombinant Baculovirus BAC-ACC2 (Nd) was added, and the cells were cultured for 3 days. The culture medium was centrifuged at 1000×g for 10 min to give virus-infected cells. The cells were washed with phosphate buffered saline (Invitrogen) and centrifuged under the same conditions. The obtained cells were cryopreserved at −80° C.
The cryopreserved cells were thawed in ice and suspended in 900 mL of 25 mM HEPES buffer (pH 7.5) containing 10% Glycerol, 0.3 M NaCl, 1 mM EDTA, 25 mM Sodium β-Glycerophosphate and 1 mM Sodium Orthovanadate, and supplemented with Complete Protease Inhibitor (Roche). The obtained suspension was homogenized three times in a polytron homogenizer (Kinematica) at 20,000 rpm for 30 sec. The obtained cell disruption solution was clarified by centrifugation at 186000×g for 60 min. To the supernatant was added 5 mL of AF-chelate 650M Ni chelated carrier (TOSOH), and the mixture was rotated at 4° C. for 1 hr, and centrifuged at 1000×g for 5 min, and the carrier was transferred to opened column. The column was washed with 50 mL of buffer A (50 mM HEPES (pH 7.5) containing 0.3 M NaCl), further washed with buffer A containing 20 mM Imidazole, and eluted with buffer A containing 250 mM Imidazole. The eluate was concentrated with Amicon Ultra 15 (Millipore) with a molecular weight cut off of 50K. The obtained concentrate was filtered using gelfiltration column (HiLoad 26/60 Superdex200 prep grade) (GE Health Care) with 50 mM HEPES buffer (pH 7.5) containing 10 mM MgCl2, 2 mM Dithiothreitol, 10 mM Tripotassium Citrate and 0.3 M NaCl to give ACC2 (Nd). The obtained ACC2 (Nd) was cryopreserved at −80° C.
(3) Measurement of ACC2 Inhibitory Activity […]

T1 sequence (O00763 117-2458 limits assumed): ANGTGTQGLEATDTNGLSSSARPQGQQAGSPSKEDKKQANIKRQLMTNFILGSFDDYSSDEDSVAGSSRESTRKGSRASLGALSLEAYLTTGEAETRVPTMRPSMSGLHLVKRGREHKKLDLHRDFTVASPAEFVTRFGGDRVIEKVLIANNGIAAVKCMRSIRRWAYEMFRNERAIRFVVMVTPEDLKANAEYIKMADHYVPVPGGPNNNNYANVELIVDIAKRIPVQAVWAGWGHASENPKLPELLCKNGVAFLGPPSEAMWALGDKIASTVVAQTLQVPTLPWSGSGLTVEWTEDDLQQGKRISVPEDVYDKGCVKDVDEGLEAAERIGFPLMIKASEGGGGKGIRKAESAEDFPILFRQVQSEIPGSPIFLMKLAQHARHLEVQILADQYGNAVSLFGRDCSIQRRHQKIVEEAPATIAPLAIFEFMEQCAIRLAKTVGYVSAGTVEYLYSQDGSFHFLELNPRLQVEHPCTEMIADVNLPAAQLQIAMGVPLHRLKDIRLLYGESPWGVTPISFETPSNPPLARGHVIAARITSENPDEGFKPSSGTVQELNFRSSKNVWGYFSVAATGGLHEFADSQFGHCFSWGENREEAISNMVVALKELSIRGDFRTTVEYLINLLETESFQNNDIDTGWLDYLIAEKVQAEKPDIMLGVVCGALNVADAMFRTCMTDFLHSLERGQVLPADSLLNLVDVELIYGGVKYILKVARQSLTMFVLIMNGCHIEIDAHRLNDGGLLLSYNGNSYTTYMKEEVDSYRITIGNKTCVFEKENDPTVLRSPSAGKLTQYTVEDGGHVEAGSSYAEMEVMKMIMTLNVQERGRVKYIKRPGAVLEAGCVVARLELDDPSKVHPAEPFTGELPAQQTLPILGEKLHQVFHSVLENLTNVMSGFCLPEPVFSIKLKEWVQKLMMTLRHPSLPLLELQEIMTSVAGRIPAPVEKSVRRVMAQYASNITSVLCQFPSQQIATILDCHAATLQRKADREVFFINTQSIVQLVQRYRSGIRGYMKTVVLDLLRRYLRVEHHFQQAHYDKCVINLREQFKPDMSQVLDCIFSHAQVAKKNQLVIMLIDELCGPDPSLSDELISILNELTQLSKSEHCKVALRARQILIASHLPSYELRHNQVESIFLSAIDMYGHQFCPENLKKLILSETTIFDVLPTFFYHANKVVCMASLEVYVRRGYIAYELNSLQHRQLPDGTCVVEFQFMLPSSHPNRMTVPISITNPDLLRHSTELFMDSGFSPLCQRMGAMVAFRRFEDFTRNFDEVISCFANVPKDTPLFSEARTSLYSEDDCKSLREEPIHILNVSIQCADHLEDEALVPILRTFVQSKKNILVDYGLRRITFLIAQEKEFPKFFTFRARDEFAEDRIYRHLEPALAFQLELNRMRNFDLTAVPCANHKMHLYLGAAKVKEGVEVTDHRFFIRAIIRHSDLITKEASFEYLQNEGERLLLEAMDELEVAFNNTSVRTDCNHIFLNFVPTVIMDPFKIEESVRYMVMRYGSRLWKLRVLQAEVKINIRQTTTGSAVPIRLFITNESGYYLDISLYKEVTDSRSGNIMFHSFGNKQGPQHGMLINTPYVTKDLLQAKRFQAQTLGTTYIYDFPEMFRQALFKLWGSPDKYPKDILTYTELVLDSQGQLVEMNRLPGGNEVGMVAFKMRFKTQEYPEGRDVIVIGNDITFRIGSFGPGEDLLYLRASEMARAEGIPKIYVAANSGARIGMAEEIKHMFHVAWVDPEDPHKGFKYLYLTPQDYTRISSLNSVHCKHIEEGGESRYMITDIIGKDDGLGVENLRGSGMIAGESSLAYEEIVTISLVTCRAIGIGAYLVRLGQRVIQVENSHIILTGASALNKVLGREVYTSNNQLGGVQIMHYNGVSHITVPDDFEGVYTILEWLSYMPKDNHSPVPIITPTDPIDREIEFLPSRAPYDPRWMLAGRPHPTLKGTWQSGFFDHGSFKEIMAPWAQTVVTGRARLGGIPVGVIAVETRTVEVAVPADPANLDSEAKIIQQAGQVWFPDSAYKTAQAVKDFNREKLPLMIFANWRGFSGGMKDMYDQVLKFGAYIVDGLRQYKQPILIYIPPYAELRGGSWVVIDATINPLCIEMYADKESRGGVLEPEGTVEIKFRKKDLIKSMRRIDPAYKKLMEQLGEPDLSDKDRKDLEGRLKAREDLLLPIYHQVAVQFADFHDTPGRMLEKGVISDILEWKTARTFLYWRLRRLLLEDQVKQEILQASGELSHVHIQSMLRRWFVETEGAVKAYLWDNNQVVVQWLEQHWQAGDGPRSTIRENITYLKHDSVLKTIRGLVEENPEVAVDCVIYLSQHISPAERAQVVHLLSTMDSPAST

With `CC(=O)N[C@@H](C)COc1ccc2nc(-c3ccc(OCC4CC4)c(F)c3)oc2c1` [Example 1, N-((2S)-1-((2-(4-(cyclopropylmethoxy)-3-fluorophenyl)-1,3-benzoxazol-6-yl)oxy)propan-2-yl)acetamide], the melting point (usually the temperature, or range, at which the solid turns liquid) amounted to 174 °C. For the same compound, the inhibition at 10 µM at human ACC2 turned out to be 95%. `C[C@@H](COc1ccc2nc(-c3ccc(OCC4CC4)c(F)c3)oc2c1)NC(=O)N(C)C` [Example 10, 3-((2S)-1-((2-(4-(cyclopropylmethoxy)-3-fluorophenyl)-1,3-benzoxazol-6-yl)oxy)propan-2-yl)-1,1-dimethylurea]: the inhibition at 10 µM at human ACC2 worked out at 91%. In turn, `CC(=O)N[C@@H](C)COc1ccc2nc(-c3ccc(OCC4CC4)c(Cl)c3)oc2c1` [Example 29, N-((2S)-1-((2-(3-chloro-4-(cyclopropylmethoxy)phenyl)-1,3-benzoxazol-6-yl)oxy)propan-2-yl)acetamide] yielded a melting point of 156 to 159 °C.

As to `CC(=O)N[C@@H](C)COc1cc2oc(-c3cnc(OCC4CC4)c(Cl)c3)nc2cn1` [Example 35, N-((2S)-1-((2-(5-chloro-6-(cyclopropylmethoxy)pyridin-3-yl)[1,3]oxazolo[4,5-c]pyridin-6-yl)oxy)propan-2-yl)acetamide], at human ACC2, the inhibition at 10 µM came out at 83%. `CC(=O)N[C@@H](C)COc1ccc2nc(-c3ccc(OCC4CC4)c(F)c3)oc2c1F` [Example 37, N-((2S)-1-((2-(4-(cyclopropylmethoxy)-3-fluorophenyl)-7-fluoro-1,3-benzoxazol-6-yl)oxy)propan-2-yl)acetamide]: the melting point is 163 to 164 °C. The inhibition at 10 µM at human ACC2 came to 90%.

Take `CC(=O)N[C@@H](C)COc1cc(F)c2nc(-c3ccc(OCC4CC4)c(F)c3)oc2c1` [Example 43, N-((2S)-1-((2-(4-(cyclopropylmethoxy)-3-fluorophenyl)-4-fluoro-1,3-benzoxazol-6-yl)oxy)propan-2-yl)acetamide]: on human ACC2, the inhibition at 10 µM worked out at 92%. Take `CC(=O)N[C@@H](C)COc1cc2oc(-c3cc(F)c(OCC4CC4)c(F)c3)nc2cn1` [Example 47, N-((2S)-1-((2-(4-(cyclopropylmethoxy)-3,5-difluorophenyl)[1,3]oxazolo[4,5-c]pyridin-6-yl)oxy)propan-2-yl)acetamide]: at human ACC2, the inhibition at 10 µM is 91%.

With `CC(=O)N[C@@H](C)COc1cc2oc(-c3ccc(OCC4CC4(F)F)c(F)c3)nc2cn1` (stereo partly drawn) [Example 49, N-((2S)-1-((2-(4-((2,2-difluorocyclopropyl)methoxy)-3-fluorophenyl)[1,3]oxazolo[4,5-c]pyridin-6-yl)oxy)propan-2-yl)acetamide], the inhibition at 10 µM on human ACC2 was 94%. On the same count and under the same terms, for `CC(=O)NC(C)COC1CCc2oc(-c3ccc(OCC4CC4)c(F)c3)nc2C1` (centres unmarked) [Example 51c, N-(1-((2-(4-(cyclopropylmethoxy)-3-fluorophenyl)-4,5,6,7-tetrahydro-1,3-benzoxazol-5-yl)oxy)propan-2-yl)acetamide] the value was 84%. `CC(=O)NC(C)COC1CCc2oc(-c3ccc(OCC4CC4)c(F)c3)nc2C1` (centres unmarked) [Example 51d, N-(1-((2-(4-(cyclopropylmethoxy)-3-fluorophenyl)-4,5,6,7-tetrahydro-1,3-benzoxazol-5-yl)oxy)propan-2-yl)acetamide]: the “ACC2 inhibitory rates (%) at 10 μM” value at human ACC2 was determined as 95%. Regarding `CC(=O)N[C@@H](C)COc1cc2oc(-c3ccc(OC[C@H]4CC4(F)F)c(F)c3)nc2cn1` [Example 69, N-((2S)-1-((2-(4-(((1R)-2,2-difluorocyclopropyl)methoxy)-3-fluorophenyl) [1,3]oxazolo[4,5-c]pyridin-6-yl)oxy)propan-2-yl)acetamide], at human ACC2 (1 μM of the test compound, read-out: ACC2 inhibitory rates (%) at 1 μM), the inhibition at 1 µM came out at 98%.

In the case of `CC(=O)N[C@@H](C)COc1ccc2nc(-c3ccc(OCC4CC4(F)F)c(F)c3)oc2c1F` (stereo partly drawn) [Example 80, N-((2S)-1-((2-(4-((2,2-difluorocyclopropyl)methoxy)-3-fluorophenyl)-7-fluoro-1,3-benzoxazol-6-yl)oxy)propan-2-yl)acetamide], the inhibition at 10 µM on human ACC2 turned out to be 89%.

Consider `CC(=O)N[C@@H](C)COc1cc2oc(-c3cc(F)c(OCC4CC4(F)F)c(F)c3)nc2cn1` (stereo partly drawn) [Example 86, N-((2S)-1-((2-(4-((2,2-difluorocyclopropyl)methoxy)-3,5-difluorophenyl)[1,3]oxazolo[4,5-c]pyridin-6-yl)oxy)propan-2-yl)acetamide], for which the “ACC2 inhibitory rates (%) at 10 μM” value at human ACC2 turned out to be 89%. In the case of `CC(=O)N[C@@H](C)COc1cc2oc(-c3ccc(OCC4CC4)cc3C)nc2cn1` [Example 117, N-((2S)-1-((2-(4-(cyclopropylmethoxy)-2-methylphenyl)[1,3]oxazolo[4,5-c]pyridin-6-yl)oxy)propan-2-yl)acetamide], the inhibition at 10 µM at human ACC2 was 101%. The same measure, in the same setting: with `CC(=O)N[C@@H](C)COc1cc2oc(-c3ncc(OCC4CC4)cc3C)nc2cn1` [Example 120, N-((2S)-1-((2-(5-(cyclopropylmethoxy)-3-methylpyridin-2-yl)[1,3]oxazolo[4,5-c]pyridin-6-yl)oxy)propan-2-yl)acetamide] the figure was 96%; with `CC(=O)N[C@@H](C)COc1cc2oc(-c3cnc(OCC4CC4)cc3C)nc2cn1` [Example 122, N-((2S)-1-((2-(6-(cyclopropylmethoxy)-4-methylpyridin-3-yl)[1,3]oxazolo[4,5-c]pyridin-6-yl)oxy)propan-2-yl)acetamide], 84%. Still for that read-out and setting: for `CC(=O)N[C@@H](C)COc1cc2oc(-c3cc(F)c(OCC4CC4(F)F)c(F)c3)nc2cn1` (stereo partly drawn) [Example 131, N-((2S)-1-((2-(4-((2,2-difluorocyclopropyl)methoxy)-3,5-difluorophenyl)[1,3]oxazolo[4,5-c]pyridin-6-yl)oxy)propan-2-yl)acetamide] the value was 96%. With `CC(=O)N[C@@H](C)COc1ncc2nc(-c3ccc(OCC4CC4(F)F)cc3)oc2n1` (stereo partly drawn) [Example 136, N-((2S)-1-((2-(4-((2,2-difluorocyclopropyl)methoxy)phenyl) [1,3]oxazolo[5,4-d]pyrimidin-5-yl)oxy)propan-2-yl)acetamide], the inhibition at 10 µM on human ACC2 worked out at 84%. Still for that read-out and setting: with `CC(=O)N[C@@H](C)COc1cc2oc(-c3ccc(OCC4(C)CC4(F)F)c(F)c3)nc2cn1` (stereo partly drawn) [Example 159, N-((2S)-1-((2-(4-((2,2-difluoro-1-methylcyclopropyl)methoxy)-3-fluorophenyl)[1,3]oxazolo[4,5-c]pyridin-6-yl)oxy)propan-2-yl)acetamide] the figure was 80%. `CC(=O)N[C@@H](C)COc1cc2oc(-c3ncc(OC[C@H]4CC4(F)F)cc3Cl)nc2cn1` [Example 163, N-((2S)-1-((2-(3-chloro-5-(((1R)-2,2-difluorocyclopropyl)methoxy)pyridin-2-yl)[1,3]oxazolo[4,5-c]pyridin-6-yl)oxy)propan-2-yl)acetamide]: the inhibition at 10 µM at human ACC2 is 93%. On the same count and under the same terms, with `CC(=O)N[C@@H](C)COc1ncc2nc(-c3cc(F)c(OC[C@H]4CC4(F)F)c(F)c3)oc2n1` [Example 167, N-((2S)-1-((2-(4-(((1R)-2,2-difluorocyclopropyl)methoxy)-3,5-difluorophenyl)[1,3]oxazolo[5,4-d]pyrimidin-5-yl)oxy)propan-2-yl)acetamide] the figure was 81%.
